Results published in patent US11420966B2 (ACLARIS THERAPEUTICS, INC., priority 2019, dated 2022).
pIC50: −log10 of the molar value.

Key:
[1] = system: IL-2 stimulated STAT5 phosphorylation on Tyr694 (JAK1/3); experiment: JAK1/3 cellular target modulation: IL-2 stimulated phospho-STAT5 in PBMC; assay type: cell-based; conditions: human PBMC, IL-2 25 ng/ml; read-out: IL2-STAT5 IC50
Text: JAK Cellular Target Modulation Assays
Target modulation was based upon the ability of a compound to inhibit JAK isoform specific phosphorylation of selected substrates. IL-2 stimulated STAT5 phosphorylation on Tyr694 was used to assess JAK1/3 compound selectivity. GM-CSF stimulated STAT5 phosphorylation on Tyr694 was used to assess JAK2 compound selectivity. IFNγ stimulated STAT1 phosphorylation on Tyr701 was used to assess JAK1/2 compound selectivity. IL-12 stimulated STAT4 phosphorylation on Tyr693 was used to assess JAK2/TYK2 compound selectivity. For all four assays, human PBMC from frozen stocks were thawed, pelleted, resuspended in complete media (90% RPMI, 10% heat inactivated FBS, 10 mM HEPES, 47 μM 2-ME, pen/strep) and placed in wells of a 96 well V-bottom plate at 200,000 per well in 120 μl complete media. Compounds were added as 15 μl per well of 10× working stock solutions in complete media with 1% DMSO (or medium with 1% DMSO for controls) and placed on a plate shaker in a 37° C. incubator with 5% CO2 for 1 hour with gentle shaking (setting of 3). Stimulation used the addition of soluble cytokines. For the JAK1/3 phospho-STAT5 assay, 15 μl of 10× working stock recombinant human IL-2 was added to a final concentration of 25 ng/ml. For the JAK2 phospho-STAT5 assay, 15 μl of 10× working stock recombinant human GM-CSF was added to a final concentration of 5 ng/ml. For the JAK1/2 phospho-STAT1 assay, 15 μl of 10× working stock of recombinant human IFNγ was added to a final concentration of 10 ng/ml. For the JAK2/TYK2 phospho-STAT4 assay, 15 μl of 10× working stock of recombinant human IL-12 was added to a final concentration of 1.7 ng/ml. Plates were then placed back on the plate shaker in the incubator for an additional 5, 5, 10, and 25 minutes respectively upon which the plates were removed from the incubator, sealed with a plate sealer and the cells pelleted at 400×g for 5 minutes. After pelleting, the media was removed by aspiration and the cells were lysed in assay specific cell lysis buffer. The levels of phospho-STATS were determined using a Phospho (Tyr694) STAT5a,b Whole Cell Lysate kit from Meso Scale Discovery. Levels of phospho-STAT1 were determined using a CST-PathScan Phospho-STAT1 (Tyr701) Sandwich ELISA kit. Levels of phospho-STAT4 were determined using a Phospho-STAT4 (Tyr693) Whole Cell Lysate kit from Meso Scale Discovery.

Tyk-2 = Tyk-2 (Homo sapiens (Human), UniProt P29597); experiment: Tyk-2 enzyme activity assay (Thermo Fisher SelectScreen, Z-lyte); assay type: biochemical; conditions: read-out: Tyk-2 Inhibition IC50
Method: (§1) JAK1, JAK2, JAK3, and Tyk-2 Enzyme Activity Assays
(§2) The inhibitory potency of candidate compounds of JAK1, JAK2, and Tyk-2 was done at Thermo Fisher Scientific in their Selectscreen using a Z-lyte assay. Following are the assay details for each enzyme.
TYK2: The 2×TYK2/Tyr 03 mixture is prepared in 50 mM HEPES pH 6.5, 0.01% BRIJ-35, 10 mM MgCl2, 1 mM EGTA, 0.02% NaN3. The final 10 μL Kinase Reaction consists of 3.75-15 ng TYK2 and 2 M Tyr 03 in 50 mM HEPES pH 7.0, 0.01% BRIJ-35, 10 mM MgCl2, 1 mM EGTA, 0.01% NaN3. After the one hour KinaseReaction incubation, 5 μL of a 1:4096 dilution of Development Reagent A is added.
(§3) Data reduction for JAK1, JAK2 and TYK2 is done the same, independent of the enzyme run. In summary, background signal is defined in the absence of enzyme and uninhibited signal is defined in the presence of vehicle (2% DMSO) alone. Compounds were evaluated in an 11 point dose-response ranging from […] to 0.34 nM. IC50 values of compounds are determined using a 4 parameter logistical fit of emission ratio as a function of the concentration of compound.

JAK2 = JAK2 (Homo sapiens (Human), UniProt O60674); experiment: JAK2 enzyme activity assay (Thermo Fisher SelectScreen, Z-lyte); assay type: biochemical; conditions: read-out: JAK2 Inhibition IC50
Method: as §1, §2
JAK2: The 2×JAK2/Tyr 06 mixture is prepared in 50 mM HEPES pH 7.5, 0.01% BRIJ-35, 10 mM MgCl2, 1 mM EGTA. The final 10 μL Kinase Reaction consists of 0.12-0.5 ng JAK2 and 2 M Tyr 06 in 50 mM HEPES pH 7.5, 0.01% BRIJ-35, 10 mM MgCl2, 1 mM EGTA. After the one hour Kinase Reaction incubation, 5 μL of a 1:128 dilution of Development Reagent A is added.
as §3

JAK1 = JAK1 (Homo sapiens (Human), UniProt P23458); experiment: JAK1 enzyme activity assay (Thermo Fisher SelectScreen, Z-lyte); assay type: biochemical; conditions: read-out: JAK1 Inhibition IC50
Method: as §1, §2
JAK: The 2×JAK-enzyme/Tyr 06 mixture is prepared in 50 mM HEPES pH 6.5, 0.01% BRIJ-35, 10 mM MgCl2, 1 mM EGTA, 0.02% NaN3. The final 10 μL of the Kinase Reaction consists of 21.2-91.5 ng JAK and 2 M Tyr 06 in 50 mM HEPES pH 7.0, 0.01% BRIJ-35, 10 mM MgCl2, 1 mM EGTA, 0.01% NaN3. After the one hour Kinase Reaction incubation, 5 μL of a 1:128 dilution of Development Reagent is added.
as §3

JAK3 (a.a. 781-1124) = JAK3 (a.a. 781-1124) (Homo sapiens (Human), UniProt P52333); experiment: JAK3 enzyme activity assay (SRCtide phosphorylation, Caliper); assay type: biochemical; conditions: 1 uM ATP; read-out: JAK3 Inhibition IC50
Method: as §1
Kinase reactions were run in a 384-well Greiner plate with 2% final DMSO concentration under the buffer conditions of 20 mM HEPES, pH 7.5, 10 mM MgCl2, 0.01% BSA, and 0.0005% Tween-20. The kinase reaction components were 2.5 nM JAK3, 1 μM SRCtide peptide and 1 uM ATP. Examples were tested in dose-response starting at 2 M (11 concentrations, 3-fold serial dilution, duplicate reactions). The reactions were incubated at room temperature for 40 minutes, then stopped by adding a 1:1 volume of 30 mM EDTA in 20 mM HEPES, pH 7.5 (15 mM EDTA final). After the reaction was stopped, the phosphorylated and unphosphorylated peptides were separated and quantified using a Caliper LC3000/EZ-Reader system and HTS Well Analyzer Software (Caliper, A PerkinElmer Company, Hopkinton, Mass.). GraFit (Erithacus Software Ltd., Horley, U.K.) was used to calculate inhibitor potency by fitting dose-response data to the 4-parameter logistical IC50 equation.

Sequence of Tyk-2 (P29597 whole entry): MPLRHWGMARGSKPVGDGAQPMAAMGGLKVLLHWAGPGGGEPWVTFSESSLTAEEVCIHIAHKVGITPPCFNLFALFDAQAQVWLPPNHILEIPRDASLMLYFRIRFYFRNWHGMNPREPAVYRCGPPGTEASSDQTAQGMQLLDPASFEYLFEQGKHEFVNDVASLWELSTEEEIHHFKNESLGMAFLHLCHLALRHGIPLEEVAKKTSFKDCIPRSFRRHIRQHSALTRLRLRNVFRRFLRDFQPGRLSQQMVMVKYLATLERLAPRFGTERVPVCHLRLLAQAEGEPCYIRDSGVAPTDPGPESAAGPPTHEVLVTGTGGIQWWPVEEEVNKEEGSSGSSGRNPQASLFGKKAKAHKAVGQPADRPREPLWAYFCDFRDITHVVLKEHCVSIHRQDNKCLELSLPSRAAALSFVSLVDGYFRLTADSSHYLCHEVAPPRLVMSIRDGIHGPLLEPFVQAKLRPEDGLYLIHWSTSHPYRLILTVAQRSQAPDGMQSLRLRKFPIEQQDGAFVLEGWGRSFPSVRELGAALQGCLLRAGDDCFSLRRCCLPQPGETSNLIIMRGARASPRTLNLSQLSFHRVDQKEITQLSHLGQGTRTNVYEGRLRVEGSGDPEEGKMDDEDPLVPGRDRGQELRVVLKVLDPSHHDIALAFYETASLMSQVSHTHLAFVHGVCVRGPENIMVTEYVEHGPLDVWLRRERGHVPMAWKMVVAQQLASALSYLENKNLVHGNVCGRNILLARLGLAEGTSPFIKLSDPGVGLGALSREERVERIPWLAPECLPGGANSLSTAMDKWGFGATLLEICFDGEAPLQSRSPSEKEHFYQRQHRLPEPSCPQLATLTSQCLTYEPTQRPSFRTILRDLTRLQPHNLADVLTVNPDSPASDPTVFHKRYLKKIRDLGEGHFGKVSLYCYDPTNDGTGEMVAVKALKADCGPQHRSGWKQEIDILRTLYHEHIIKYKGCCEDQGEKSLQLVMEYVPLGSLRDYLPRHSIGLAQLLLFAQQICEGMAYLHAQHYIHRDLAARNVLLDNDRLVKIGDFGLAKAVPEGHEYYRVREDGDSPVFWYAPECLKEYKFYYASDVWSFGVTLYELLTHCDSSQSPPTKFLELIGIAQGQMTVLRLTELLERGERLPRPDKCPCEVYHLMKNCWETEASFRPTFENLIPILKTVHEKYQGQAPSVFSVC
Sequence of JAK2 (O60674 whole entry): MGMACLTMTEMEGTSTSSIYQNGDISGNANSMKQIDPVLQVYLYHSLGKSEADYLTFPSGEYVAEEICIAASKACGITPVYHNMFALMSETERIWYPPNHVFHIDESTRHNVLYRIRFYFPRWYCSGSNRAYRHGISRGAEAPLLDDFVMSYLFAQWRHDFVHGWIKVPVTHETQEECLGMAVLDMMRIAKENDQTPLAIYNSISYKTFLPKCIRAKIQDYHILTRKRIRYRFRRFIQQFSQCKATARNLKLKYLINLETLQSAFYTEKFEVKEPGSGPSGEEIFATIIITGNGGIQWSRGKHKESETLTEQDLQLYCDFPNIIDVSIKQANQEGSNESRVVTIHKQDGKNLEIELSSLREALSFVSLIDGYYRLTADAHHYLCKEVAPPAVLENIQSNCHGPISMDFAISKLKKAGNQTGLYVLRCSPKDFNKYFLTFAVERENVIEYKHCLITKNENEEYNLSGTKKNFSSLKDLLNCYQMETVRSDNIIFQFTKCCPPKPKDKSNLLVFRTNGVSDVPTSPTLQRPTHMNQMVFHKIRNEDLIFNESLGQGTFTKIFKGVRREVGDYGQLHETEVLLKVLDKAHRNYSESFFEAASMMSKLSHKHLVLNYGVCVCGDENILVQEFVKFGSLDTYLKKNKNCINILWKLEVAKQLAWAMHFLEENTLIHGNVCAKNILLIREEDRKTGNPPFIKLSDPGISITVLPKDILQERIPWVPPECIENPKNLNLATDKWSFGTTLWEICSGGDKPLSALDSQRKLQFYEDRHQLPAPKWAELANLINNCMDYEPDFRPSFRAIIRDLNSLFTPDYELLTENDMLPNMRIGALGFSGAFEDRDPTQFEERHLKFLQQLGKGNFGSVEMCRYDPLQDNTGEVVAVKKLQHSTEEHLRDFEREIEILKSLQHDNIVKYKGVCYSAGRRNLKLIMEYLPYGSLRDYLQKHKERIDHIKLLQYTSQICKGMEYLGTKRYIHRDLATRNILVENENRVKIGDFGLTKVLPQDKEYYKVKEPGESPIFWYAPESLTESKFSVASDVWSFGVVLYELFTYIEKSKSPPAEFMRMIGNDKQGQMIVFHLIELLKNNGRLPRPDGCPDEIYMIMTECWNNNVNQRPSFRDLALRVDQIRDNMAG
Sequence of JAK3 (a.a. 781-1124) (P52333 781-1124): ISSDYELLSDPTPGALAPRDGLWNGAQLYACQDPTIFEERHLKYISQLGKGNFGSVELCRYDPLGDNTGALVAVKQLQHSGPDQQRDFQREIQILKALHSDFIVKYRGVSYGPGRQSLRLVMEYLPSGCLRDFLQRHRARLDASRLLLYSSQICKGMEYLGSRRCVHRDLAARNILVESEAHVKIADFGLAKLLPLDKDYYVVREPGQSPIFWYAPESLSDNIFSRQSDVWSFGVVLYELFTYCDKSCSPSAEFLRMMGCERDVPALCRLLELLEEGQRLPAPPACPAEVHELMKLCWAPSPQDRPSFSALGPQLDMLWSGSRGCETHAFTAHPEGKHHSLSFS
Sequence of JAK1 (P23458 whole entry): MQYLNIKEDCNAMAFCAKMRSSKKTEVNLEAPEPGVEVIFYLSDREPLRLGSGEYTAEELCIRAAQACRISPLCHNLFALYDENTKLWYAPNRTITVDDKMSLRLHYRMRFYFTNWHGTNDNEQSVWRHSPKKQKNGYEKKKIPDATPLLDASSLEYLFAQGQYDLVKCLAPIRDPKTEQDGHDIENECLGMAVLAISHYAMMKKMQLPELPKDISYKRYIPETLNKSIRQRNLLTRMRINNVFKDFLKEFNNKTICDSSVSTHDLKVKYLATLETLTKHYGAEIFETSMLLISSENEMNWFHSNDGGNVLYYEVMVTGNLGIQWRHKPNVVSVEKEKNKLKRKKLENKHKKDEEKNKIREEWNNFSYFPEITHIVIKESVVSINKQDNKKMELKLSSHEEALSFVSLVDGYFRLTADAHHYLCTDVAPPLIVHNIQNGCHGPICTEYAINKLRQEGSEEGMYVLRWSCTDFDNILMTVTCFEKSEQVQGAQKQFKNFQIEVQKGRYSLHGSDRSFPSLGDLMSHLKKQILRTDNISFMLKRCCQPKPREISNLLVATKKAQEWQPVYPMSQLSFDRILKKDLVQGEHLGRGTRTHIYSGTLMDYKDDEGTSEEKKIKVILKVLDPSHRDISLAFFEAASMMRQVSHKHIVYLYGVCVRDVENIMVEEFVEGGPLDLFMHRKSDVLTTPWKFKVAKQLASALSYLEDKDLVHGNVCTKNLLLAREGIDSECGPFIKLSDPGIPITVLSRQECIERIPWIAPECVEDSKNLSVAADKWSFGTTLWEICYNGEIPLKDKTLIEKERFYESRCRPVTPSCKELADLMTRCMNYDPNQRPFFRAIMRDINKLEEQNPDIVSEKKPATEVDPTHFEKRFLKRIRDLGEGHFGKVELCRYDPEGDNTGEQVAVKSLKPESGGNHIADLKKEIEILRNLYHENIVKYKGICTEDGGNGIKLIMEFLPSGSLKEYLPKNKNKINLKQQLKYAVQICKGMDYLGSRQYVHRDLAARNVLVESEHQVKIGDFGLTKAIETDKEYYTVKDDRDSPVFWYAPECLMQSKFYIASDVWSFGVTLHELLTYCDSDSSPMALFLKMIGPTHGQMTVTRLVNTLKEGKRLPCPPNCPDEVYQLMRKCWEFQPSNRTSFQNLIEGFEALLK

pIC50 [1] | pIC50 (Tyk-2) | pIC50 (JAK2) | pIC50 (JAK1) | pIC50 (JAK3 (a.a. 781-1124)) | SMILES
< 6.00 | 6.00 to 7.00 | 6.00 to 7.00 | 6.00 to 7.00 | 7.00 to 8.00 | C[C@@H]1C[C@H](Nc2c(-c3ncco3)cnc3[nH]ccc23)CN(C(=O)CC#N)C1 (single isomer, unassigned) [Example 9]
 |  |  | ≥ 8.00 |  | N#CCC(=O)N1CCC[C@@H](Nc2c(-c3nncs3)cnc3[nH]ccc23)C1 [Example 8, (R)-3-(3-((5-(1,3,4-thiadiazol-2-yl)-1H-pyrrolo[2,3-b]pyridin-4-yl)amino)piperidin-1-yl)-3-oxopropanenitrile]
< 6.00 | < 6.00 | < 6.00 | < 6.00 | < 6.00 | Cn1ccnc1-c1cnc2[nH]ccc2c1N[C@@H]1CCCN(C(=O)CC#N)C1 [Example 17, (R)-3-(3-((5-(1-methyl-1H-imidazol-2-yl)-1H-pyrrolo[2,3-b]pyridin-4-yl)amino)piperidin-1-yl)-3-oxopropanenitrile]
 | ≥ 8.00 |  | ≥ 8.00 | ≥ 8.00 | N#CCC(=O)N1CCC[C@@H](Nc2c(-c3ccncn3)cnc3[nH]ccc23)C1 [Example 24, (R)-3-oxo-3-(3-((5-(pyrimidin-4-yl)-1H-pyrrolo[2,3-b]pyridin-4-yl)amino)piperidin-1-yl)propanenitrile]
< 6.00 | 6.00 to 7.00 | 6.00 to 7.00 | 6.00 to 7.00 | 7.00 to 8.00 | CNC(=O)c1coc(-c2cnc3[nH]ccc3c2N[C@H]2C[C@@H](C)CN(C(=O)CC#N)C2)n1 [Example 32, 2-(4-(((3S,5R)-1-(2-cyanoacetyl)-5-methylpiperidin-3-yl)amino)-1H-pyrrolo[2,3-b]pyridin-5-yl)-N-methyloxazole-4-carboxamide]
< 6.00 | 7.00 to 8.00 | 7.00 to 8.00 | ≥ 8.00 | ≥ 8.00 | CN(C(=O)CC#N)C1CCN(c2nccc(-c3cnc4[nH]ccc4c3N[C@@H]3CCCN(C(=O)CC#N)C3)n2)C1 (stereo partly drawn) [Example 50, 2-cyano-N-(1-(4-(4-(((R)-1-(2-cyanoacetyl)piperidin-3-yl)amino)-1H-pyrrolo[2,3-b]pyridin-5-yl)pyrimidin-2-yl)pyrrolidin-3-yl)-N-methylacetamide]
< 6.00 | 6.00 to 7.00 | 7.00 to 8.00 | 7.00 to 8.00 | 6.00 to 7.00 | CN(C)S(=O)(=O)Nc1ccnc(-c2cnc3[nH]ccc3c2N[C@@H]2CCCN(C(=O)CC#N)C2)c1 [Example 54, (R)-N-(2-(4-((1-(2-cyanoacetyl)piperidin-3-yl)amino)-1H-pyrrolo[2,3-b]pyridin-5-yl)pyridin-4-yl)N,N-dimethyl sulfuric diamide]
< 6.00 | 6.00 to 7.00 | 6.00 to 7.00 | 7.00 to 8.00 | 6.00 to 7.00 | CS(=O)(=O)Nc1ccnc(-c2cnc3[nH]ccc3c2N[C@@H]2CCCN(C(=O)CC#N)C2)c1 [Example 56, (R)-N-(2-(4-((1-(2-cyanoacetyl)piperidin-3-yl)amino)-1H-pyrrolo[2,3-b]pyridin-5-yl)pyridin-4-yl)methanesulfonamide]
< 6.00 | 6.00 to 7.00 | 6.00 to 7.00 | 6.00 to 7.00 | 7.00 to 8.00 | C[C@@H]1C[C@H](Nc2c(-c3ccncn3)cnc3[nH]ccc23)CN(C(=O)CC#N)C1 [Example 57, 3-((3R,5S)-3-methyl-5-((5-(pyrimidin-4-yl)-1H-pyrrolo[2,3-b]pyridin-4-yl)amino)piperidin-1-yl)-3-oxopropanenitrile]
 | 7.00 to 8.00 |  | ≥ 8.00 |  | Cc1ccnc(-c2cnc3[nH]ccc3c2N[C@@H]2CCCN(C(=O)CC#N)C2)n1 [Example 60]
< 6.00 | 6.00 to 7.00 | 7.00 to 8.00 | 7.00 to 8.00 | 7.00 to 8.00 | CNC(=O)c1ccnc(-c2cnc3[nH]ccc3c2N[C@@H]2CCCN(C(=O)CC#N)C2)c1 [Example 61, (R)-2-(4-((1-(2-cyanoacetyl)piperidin-3-yl)amino)-1H-pyrrolo[2,3-b]pyridin-5-yl)-N-methylisonicotinamide]
